Measurements published in US10828315B2 (Madrigal Pharmaceuticals, Inc., priority 2013, dated 2020).
Where two headings read alike, the source gives them in different places.

What was measured:
[1] = Artificial membrane permeability assay (PAMPA)
HER2 = HER2 degradation assay with BT-474 cell line (Example 12, FACS); assay type: cell-based, human
[2] = Mouse plasma stability protocol, up to 1 h (Examples 16-18)
[3] = Tissue Distribution Data for SDC-TRAP-0154
[4] = Retention of docetaxel SDC-TRAPs in plasma and tumor (Example 53); assay type: in vivo, Female SCID Mouse (H1975); settings: DRD
Protocol: Blood samples (˜300 μL) were collected by cardiac puncture and immediately centrifuged at 6000 rpm for 8 minutes at approximately 4° C. Resulting plasma samples (˜150 μL) were stored at −80° C. until analysis.
Following sacrifice, tumors were immediately dissected on ice, flash frozen in liquid N2, and stored at −80° C. until analysis.
To 55 μL of plasma samples, 200 μL of methanol containing 150-250 ng/mL internal standard(s) was added. Samples were vortex mixed for approximately 1.5 minutes at ambient temperature and then centrifuged at 4400 rpm for 10 mm at approximately 4° C. The resulting supernatants (175 μL) were transferred to a 96-well plate and dried under nitrogen at 40° C. Dried samples were reconstituted with 100 μL 50/50 (v/v) water/methanol, vortex mixed and 10 μL were injected into LC-MS/MS.
Tumor samples were weighed and homogenized in 5 volume of ice-cold phosphate buffered saline on ice using a hand-held homogenizer. To 55 μL of tumor homogenate samples, 200 μL of methanol containing 150-250 ng/mL internal standard(s) was added. Samples were vortex mixed for approximately 1.5 minutes at ambient temperature and then centrifuged at 4400 rpm for 10 min at approximately 4° C. The resulting supernatants (175 μL) were transferred to a 96-well plate and dried under nitrogen at 40° C. Dried samples were reconstituted with 100 μL 50/50 (v/v) water/methanol, vortex mixed and 10 μL were injected into LC-MS/MS.
Plasma and tumor samples were analyzed by LC-MS/MS using an Agilent 1100 HPLC (Agilent Technologies, Santa Clara, Calif.) interfaced to an API 4000 tandem mass spectrometer (Applied Biosystems, Foster City, Calif.). […] The flow rate was 0.5 mL/min. […] Quantitation for each analyte was done by extrapolation from a standard curve ranging from 2.50 to 50000 nM with 1/x^2 weighting.
Blood samples (˜300 μL) were collected by cardiac puncture and immediately centrifuged at 6000 rpm for 8 minutes at approximately 4° C. Resulting plasma samples (˜150 μL) were transferred to Eppendorf tubes containing approximately 5-10 mg of NaF, vortex mixed, and stored at −80° C. until analysis.
Following sacrifice tumors were immediately dissected on ice, flash frozen in liquid N2, and stored at −80° C. until analysis.
To 60 μL of plasma samples, 25 μL of 75/25 (v/v) water/acetonitrile containing 100 ng/mL internal standard(s) and 200 μL of acetonitrile were added. Samples were vortex mixed for approximately 2 minutes at ambient temperature and then centrifuged at 4400 rpm for 10 min at approximately 4° C. The resulting supernatants (300 μL) were transferred to a 96-well plate and dried under nitrogen at 40° C. Dried samples were reconstituted with 500 μL 60/40 (v/v) water/acetonitrile, vortex mixed and 10 μL were injected into LC-MS/MS.
Tumor samples were weighed and homogenized in 3 volume of ice-cold phosphate buffered saline on ice using a hand-held homogenizer. To 60 μL of tumor homogenate samples, 25 μL of 75/25 (v/v) water/acetonitrile containing 100 ng/mL internal standard(s) and 200 μL of acetonitrile were added. […] The resulting supernatants (200 μL) were transferred to a 96-well plate and dried under nitrogen at 40° C. Dried samples were reconstituted with 600 μL 60/40 (v/v) water/acetonitrile, vortex mixed and 10 μL were injected into LC-MS/MS.
Plasma and tumor samples were analyzed by LC-MS/MS using an Agilent 1100 HPLC (Agilent Technologies, Santa Clara, Calif.) interfaced to an API 4000 tandem mass spectrometer (Applied Biosystems, Foster City, Calif.). The separation of analytes were performed on a Symmetry Shield Sum C18 (2.1×100 mm; 100 Å) column (Waters, Milford, Mass.) with a run time of 5.0 mm per sample using the mobile phase consisted of 0.1% formic acid (A) and acetonitrile containing 0.1% formic acid (B). […] Quantitation for each analyte was done by extrapolation from a standard curve ranging from 1.00 to 25000 ng/mL with 1/x^2 weighting.

[5] = of analyte at 24 h, dosed SDC-TRAP-0427 25 mg/10 mL/kg IV, Table 4
[6] = of analyte at 48 h, dosed SDC-TRAP-0427 25 mg/10 mL/kg IV, Table 4
[7] = of analyte at 72 h, dosed SDC-TRAP-0427 25 mg/10 mL/kg IV, Table 4
[8] = of analyte at 48 h, dosed SDC-TRAP-0428 25 mg/10 mL/kg IV, Table 4

For `CC(C)c1cc(-c2nnc(O)n2-c2ccc3c(ccn3CCNC(=O)CCCC[C@@H]3SCC4NC(=O)NC43)c2)c(O)cc1O` (stereo in doubt) [SDC-TRAP-0233, N-(2-(5-(3-(2,4-dihydroxy-5-isopropylphenyl)-5-hydroxy-4H-1,2,4-triazol-4-yl)-1H-indol-1-yl)ethyl)-5-((3aS,4S,6aR)-2-oxohexahydro-1H-thieno[3,4-d]imidazol-4-yl)pentanamide], the “Mass Retention” value ([1]; incubation 5 h, first table) was 10.9%.
In the case of `CC(C)c1cc(-c2nnc(O)n2-c2ccc3c(ccn3CCNC(=O)CCCCCNC(=O)CCCC[C@H]3SCC4NC(=O)NC43)c2)c(O)cc1O` (stereo in doubt) [SDC-TRAP-0234, N-(2-(5-(3-(2,4-dihydroxy-5-isopropylphenyl)-5-hydroxy-4H-1,2,4-triazol-4-yl)-1H-indol-1-yl)ethyl)-6-(5-((3aR,4R,6aS)-2-oxohexahydro-1H-thieno[3,4-d]imidazol-4-yl)pentanamido)hexanamide], the “Mass Retention” value ([1]; incubation 5 h, first table) is reported as 9.56%.
With `Cn1c(=O)c2c(ncn2C)n(C)c1=O` [Caffeine] the “Mass Retention” value ([1]; incubation 5 h, first table) was 20.8% and the “Mass Retention” value ([1]; same protocol, second table) was −0.11%.
With `CC(=O)O[C@@]12CO[C@@H]1C[C@H](O)[C@@]1(C)C(=O)[C@H](O)C3=C(C)[C@@H](OC(=O)[C@H](O)[C@@H](NC(=O)OC(C)(C)C)c4ccccc4)C[C@@](O)([C@@H](OC(=O)c4ccccc4)[C@H]21)C3(C)C` [Docetaxel, docetaxel, reference compound] the “Mass Retention” value ([1]; incubation 5 h, first table) was 17.6%.
In the case of `COc1cccc2c1C(=O)c1c(O)c3c(c(O)c1C2=O)C[C@@](O)(C(=O)CO)C[C@@H]3O[C@H]1C[C@H](N)[C@H](O)[C@H](C)O1` [Doxorubicin, doxorubicin, reference compound], the “Mass Retention” value ([1]; incubation 5 h, first table) is reported as 21.0%.
For `CC(C)c1cc(-c2nnc(O)n2-c2ccc3c(ccn3CCOCCNC(=O)CCn3cc(F)c(=O)[nH]c3=O)c2)c(O)cc1O` [SDC-TRAP-0048, N-(2-(2-(5-(3-(2,4-dihydroxy-5-isopropylphenyl)-5-hydroxy-4H-1,2,4-triazol-4-yl)-1H-indol-1-yl)ethoxy)ethyl)-3-(5-fluoro-2,4-dioxo-3,4-dihydropyrimidin-1(2H)-yl)propanamide], the “Mass Retention” value ([1]; incubation 5 h, first table) was 10.8%.
In the case of `CC(C)c1cc(-c2nnc(O)n2-c2ccc(CN3CCN(C(=O)CCn4cc(F)c(=O)[nH]c4=O)CC3)cc2)c(O)cc1O` [SDC-TRAP-0049, 1-(3-(4-(4-(3-(2,4-dihydroxy-5-isopropylphenyl)-5-hydroxy-4H-1,2,4-triazol-4-yl)benzyl)piperazin-1-yl)-3-oxopropyl)-5-fluoropyrimidine-2,4(1H,3H)-dione], the “Mass Retention” value ([1]; incubation 5 h, first table) is reported as 14.1%.
For `CCc1c2c(nc3ccc(O)cc13)-c1cc3c(c(=O)n1C2)COC(=O)[C@@]3(CC)OC(=O)N1CCC(CCn2ccc3cc(-n4c(O)nnc4-c4cc(C(C)C)c(O)cc4O)ccc32)CC1` [SDC-TRAP-0064, (S)-4,11-diethyl-9-hydroxy-3,14-dioxo-3,4,12,14-tetrahydro-1H-pyrano[3′,4′:6,7]indolizino[1,2-b]quinolin-4-yl 4-(2-(5-(3-(2,4-dihydroxy-5-isopropylphenyl)-5-hydroxy-4H-1,2,4-triazol-4-yl)-1H-indol-1-yl)ethyl)piperidine-1-carboxylate], the IC50 (HER2) was 1130 nM, the “% Remaining (1 h)” value ([2]; % Remaining of parent after 1 h incubation in mouse plasma at 37° C. (10 μM)) was 91.5% and the “% Remaining (1 h)” value ([2]; mouse plasma, 37° C., 10 μM) was 91.5%. For the same molecule, the “% Remaining (1 h, 37° C.)” value ([2]; mouse plasma, 1 h, 37° C.) was 91.5% and the “Mass Retention” value ([1]; same protocol, second table) was 48.4%.
In the case of `CCNC(=O)c1nnc(-c2cc(C(C)C)c(O)cc2O)n1-c1ccc(Oc2ccc(C(=O)N3CCC(C(=O)OC4(CC)C(=O)OCc5c4cc4n(c5=O)Cc5c-4nc4ccc(O)cc4c5CC)CC3)cc2)cc1` (stereo not drawn) [SDC-TRAP-0154, 4,11-Diethyl-9-hydroxy-3,14-dioxo-3,4,12,14-tetrahydro-1H-pyrano[3′,4′:6,7]indolizino[1,2-b]quinolin-4-yl 1-(4-(4-(3-(2,4-dihydroxy-5-isopropylphenyl)-5-(ethylcarbamoyl)-4H-1,2,4-triazol-4-yl)phenoxy)benzoyl)piperidine-4-carboxylate], the IC50 (HER2) is reported as 191 nM, the “Mass Retention” value ([1]; same protocol, second table) is reported as 10.3% and the “Plasma Conc.” value ([3]; Time (h) 0.083) is reported as 928 µM. The “Tumor Conc.” value ([3]; Time (h) 0.083) was 11.8 nmol/g of tissue, the “Tumor/Plasma Ratio” value ([3]; Time (h) 0.083) was 0.01 and the “Plasma Conc.” value ([3]; Time (h) 1) was 251 µM. For the same molecule, the “Tumor Conc.” value ([3]; Time (h) 1) was 14.1 nmol/g of tissue, the “Tumor/Plasma Ratio” value ([3]; Time (h) 1) was 0.06 and the “Plasma Conc.” value ([3]; Time (h) 6) was 5.08 µM. For the same molecule, the “Tumor Conc.” value ([3]; Time (h) 6) was 9.46 nmol/g of tissue, the “Tumor/Plasma Ratio” value ([3]; Time (h) 6) was 1.86 and the “Plasma Conc.” value ([3]; Time (h) 24) was 0.198 µM. The “Tumor Conc.” value ([3]; Time (h) 24) was 2.35 nmol/g of tissue, the “Tumor/Plasma Ratio” value ([3]; Time (h) 24) was 11.9 and the “Plasma Conc.” value ([3]; Time (h) 48) was 0.0218 µM. For the same molecule, the “Tumor Conc.” value ([3]; Time (h) 48) was 1.88 nmol/g of tissue and the “Tumor/Plasma Ratio” value ([3]; Time (h) 48) was 86.0.
With `CCNC(=O)c1nnc(-c2cc(C(C)C)c(O)cc2O)n1-c1ccc(CN2CCC(C(=O)N[C@@H](CC(C)C)C(=O)Nc3cccc4c3CN(C3CCC(=O)NC3=O)C4=O)CC2)cc1` (stereo partly drawn) [SDC-TRAP-0193, 1-(4-(3-(2,4-dihydroxy-5-isopropylphenyl)-5-(ethylcarbamoyl)-4H-1,2,4-triazol-4-yl)benzyl)-N-((2S)-1-((2-(2,6-dioxopiperidin-3-yl)-1-oxoisoindolin-4-yl)amino)-4-methyl-1-oxopentan-2-yl)piperidine-4-carboxamide] the “Mass Retention” value ([1]; incubation 5 h, first table) was 10.2%.
In the case of `CCc1c2c(nc3ccc(OC(=O)N4CCC[C@H]4C(=O)N4CCC(CCn5ccc6cc(-n7c(O)nnc7-c7cc(C(C)C)c(O)cc7O)ccc65)CC4)cc13)-c1cc3c(c(=O)n1C2)COC(=O)[C@]3(O)CC` [SDC-TRAP-0210], the IC50 (HER2) is reported as over 10000 nM, the “Mass Retention” value ([1]; incubation 5 h, first table) is reported as 34.8% and the “Mass Retention” value ([1]; same protocol, second table) is reported as 72.2%.
In the case of `CC(C)c1cc(-c2nnc(C(=O)NCCCCCS(N)(=O)=O)n2-c2ccc(CN3CCOCC3)cc2)c(O)cc1O` [SDC-TRAP-0232, 5-(2,4-dihydroxy-5-isopropylphenyl)-4-(4-(morpholinomethyl)phenyl)-N-(5-sulfamoylpentyl)-4H-1,2,4-triazole-3-carboxamide], the “Mass Retention” value ([1]; incubation 5 h, first table) is reported as 21.0%.
`CC(=O)O[C@@]12CO[C@@H]1C[C@H](O)[C@@]1(C)C(=O)[C@H](O)C3=C(C)[C@@H](OC(=O)[C@H](OC(=O)CCC(=O)NC4CCN(C(=O)C5CCN(Cc6ccc(-n7c(O)nnc7-c7cc(C(C)C)c(O)cc7O)cc6)CC5)CC4)[C@@H](NC(=O)OC(C)(C)C)c4ccccc4)C[C@@](O)([C@@H](OC(=O)c4ccccc4)[C@H]21)C3(C)C` [SDC-TRAP-0427] showed a concentration at 6 h ([4]; female, SCID, mouse, in vivo, of analyte at 6 h, dosed SDC-TRAP-0427 7 mg/10 mL/kg IV, Table 5, second optimized procedure, read-out: Plasma Conc.) of 8.39 µM, a concentration at 6 h ([4]; female, SCID, mouse, in vivo, of analyte at 6 h, dosed SDC-TRAP-0427 25 mg/10 mL/kg IV, Table 4, read-out: Plasma Conc.) of 20.9 µM and a concentration at 48 h ([4]; female, SCID, mouse, in vivo, of analyte at 48 h, dosed SDC-TRAP-0427 7 mg/10 mL/kg IV, Table 5, second optimized procedure, read-out: Plasma Conc.) of 0.0118 µM. The concentration at 72 h ([4]; female, SCID, mouse, in vivo, of analyte at 72 h, dosed SDC-TRAP-0427 7 mg/10 mL/kg IV, Table 5, second optimized procedure, read-out: Plasma Conc.) was 0.0101 µM, the “Tumor Conc.” value ([4]; of analyte at 6 h, dosed SDC-TRAP-0427 7 mg/10 mL/kg IV, Table 5, second optimized procedure) was 1.19 nmol/g of tissue and the “Tumor Conc.” value ([4]; of analyte at 6 h, dosed SDC-TRAP-0427 25 mg/10 mL/kg IV, Table 4) was 13.6 nmol/g of tissue. For the same molecule, the “Plasma Conc.” value [4, 5] was “BQL”, the “Tumor Conc.” value [4, 5] was 14.6 nmol/g of tissue and the “Tumor Conc.” value ([4]; of analyte at 48 h, dosed SDC-TRAP-0427 7 mg/10 mL/kg IV, Table 5, second optimized procedure) was 0.458 nmol/g of tissue. The “Plasma Conc.” value [4, 6] was “BQL”, the “Tumor Conc.” value [4, 6] was 8.02 nmol/g of tissue and the “Tumor Conc.” value ([4]; of analyte at 72 h, dosed SDC-TRAP-0427 7 mg/10 mL/kg IV, Table 5, second optimized procedure) was 0.372 nmol/g of tissue. For the same molecule, the “Plasma Conc.” value [4, 7] was “BQL” and the “Tumor Conc.” value [4, 7] was 7.18 nmol/g of tissue.
For `CC(=O)O[C@@]12CO[C@@H]1C[C@H](O)[C@@]1(C)C(=O)[C@H](O)C3=C(C)[C@@H](OC(=O)[C@H](OC(=O)C4CCN(C(=O)C5CCN(Cc6ccc(-n7c(O)nnc7-c7cc(C(C)C)c(O)cc7O)cc6)CC5)CC4)[C@@H](NC(=O)OC(C)(C)C)c4ccccc4)C[C@@](O)([C@@H](OC(=O)c4ccccc4)[C@H]21)C3(C)C` [SDC-TRAP-0428], the “Tumor Conc.” value ([4]; of analyte at 6 h, dosed SDC-TRAP-0428 25 mg/10 mL/kg IV, Table 4) was 5.27 nmol/g of tissue, the “Tumor Conc.” value ([4]; of analyte at 24 h, dosed SDC-TRAP-0428 25 mg/10 mL/kg IV, Table 4) was 3.89 nmol/g of tissue and the “Plasma Conc.” value [4, 8] was “BQL”. The “Tumor Conc.” value [4, 8] was 3.40 nmol/g of tissue and the “Tumor Conc.” value ([4]; of analyte at 72 h, dosed SDC-TRAP-0428 25 mg/10 mL/kg IV, Table 4) was 1.20 nmol/g of tissue.
